Test results reported in article PMC4340712, “Delineating the Biosynthesis of Gentamicin X2, the Common Precursor of the Gentamicin C Antibiotic Complex” (Chemistry & Biology, 2015).

Tests used:
GenS2 = target: T1, GenS2 (Micromonospora echinospora, UniProt Q70KD4); assay: LC-ESI-HRMS of […]″-deamination; type: biochemical; details: 2-oxoglutarate 1 mM as amino acceptor, Tris-HCl pH 7.5, 30°C; reverse reaction; GenS2 alone
T1 construct: gene gtmD; full length, N-terminal His6 tag (pET28a), initiator Met lost, tag kept; E. coli BL21(DE3)
T1 sequence (Q70KD4 2-418): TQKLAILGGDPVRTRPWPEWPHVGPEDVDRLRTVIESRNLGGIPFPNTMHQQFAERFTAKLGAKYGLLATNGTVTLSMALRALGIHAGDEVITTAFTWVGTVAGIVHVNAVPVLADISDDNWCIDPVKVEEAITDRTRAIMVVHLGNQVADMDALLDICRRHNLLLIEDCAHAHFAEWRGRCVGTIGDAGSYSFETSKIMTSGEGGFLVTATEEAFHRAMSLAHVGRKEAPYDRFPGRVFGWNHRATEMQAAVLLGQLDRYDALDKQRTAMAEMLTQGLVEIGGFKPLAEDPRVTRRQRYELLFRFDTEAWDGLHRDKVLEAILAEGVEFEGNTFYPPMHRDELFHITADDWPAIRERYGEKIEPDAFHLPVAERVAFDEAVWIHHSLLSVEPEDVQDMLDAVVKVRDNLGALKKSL

GenD2 = target: T2, GenD2 (Micromonospora echinospora, UniProt Q70KD1); assay: coupled reverse reaction from kanamycin B, LC-ESI-HRMS; type: biochemical; details: NADH or NADPH 2.5 mM; ketone generated in situ by GenS2 with 2-oxoglutarate; Tris-HCl pH 7.5, 30°C
T2 construct: gene gtmC; full length, N-terminal His6 tag (pET28a), initiator Met lost, tag kept; E. coli BL21(DE3); 38,533 Da (calc. 38,539)
T2 sequence (Q70KD1 entry or part of it): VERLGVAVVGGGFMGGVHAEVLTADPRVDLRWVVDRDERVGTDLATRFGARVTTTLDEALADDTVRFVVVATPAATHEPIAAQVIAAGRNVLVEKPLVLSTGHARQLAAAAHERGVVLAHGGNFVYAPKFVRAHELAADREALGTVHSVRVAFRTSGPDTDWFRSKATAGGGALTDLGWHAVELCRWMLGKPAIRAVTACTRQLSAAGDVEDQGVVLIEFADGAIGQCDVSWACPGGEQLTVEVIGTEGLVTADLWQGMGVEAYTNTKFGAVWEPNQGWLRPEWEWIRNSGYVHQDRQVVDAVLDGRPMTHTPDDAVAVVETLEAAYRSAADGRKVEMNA

[1] = substrate: NC[C@H]1O[C@H](O[C@H]2[C@H](O)[C@@H](O[C@H]3O[C@H](CO)[C@@H](O)[C@H](N)[C@H]3O)[C@H](N)C[C@@H]2N)[C@H](N)[C@@H](O)[C@@H]1O; assay: SAM-dependent N-methylation kinetics (details in supplement); type: biochemical, Micromonospora echinospora; details: co-substrate SAM; 3″-N-methylation

## NC[C@H]1O[C@H](O[C@H]2[C@H](O)[C@@H](O[C@H]3O[C@H](CO)[C@@H](O)[C@H](N)[C@H]3O)[C@H](N)C[C@@H]2N)[C@H](N)[C@@H](O)[C@@H]1O [compound 11, kanamycin B]
GenS2
  LC-ESI-HRMS of 3′′-deamination: LC-ESI-HRMS analysis showed that GenS2 catalyzed low-level deamination of both compounds

## NC[C@H]1O[C@H](O[C@H]2[C@H](O)[C@@H](O[C@H]3O[C@H](CO)[C@@H](O)[C@H](N)[C@H]3O)[C@H](N)C[C@@H]2N)[C@H](N)C[C@@H]1O [compound 12, tobramycin]
GenS2
  LC-ESI-HRMS of 3′′-deamination: LC-ESI-HRMS analysis showed that GenS2 catalyzed low-level deamination of both compounds

## NC[C@H]1O[C@H](O[C@H]2[C@H](O)[C@@H](O[C@H]3O[C@H](CO)[C@@H](O)C(=O)[C@H]3O)[C@H](N)C[C@@H]2N)[C@H](N)[C@@H](O)[C@@H]1O [compound 13, 3″-deamino-3″-oxo-kanamycin B]
GenD2
  coupled reverse reaction from kanamycin B, LC-ESI-HRMS: in the presence of GenS2 and GenD2 (and either NADH or NADPH) essentially quantitative yields

B1: GenN (Micromonospora echinospora) (protein)
chain: IVGGSTIQPERVDAAALRQLGDAMRKVVGSADPTPLADLLSGTPVDPDELTREVGADGRQALLDSGMAVDDGTTFSSPLRGHQLHGVVVLSDPDVEEEVQHRWYVDPLWEADLLIRLMLRRGGARALDMGCGSGVLSLVLADRYESVLGVDVNPRAVALSRLNAALNGLTNVTFREGDMFEPAEGRFSRIVFNSPTNEEGNEFVDLLEAGEPILETFFRNVPRKLESGGIVEVNLAMNDYPGDPFRERLADWLGLTENGLRVQIFTSQRRATESGGEWKRGWLVVAPGPVGLTEVEWPYHDRYEEDPDALLDGTDRLLRG
notes: full length, N-terminal His6 tag (pET28a), initiator Met lost, tag kept; E. coli BL21(DE3)
[1]
  Km: 34 ± 3.8 µM
  kcat: 1.93 ± 0.1 s⁻¹
